Source: paper PMC5402301, “Discovery of tauroursodeoxycholic acid biotransformation enzymes from the gut microbiome of black bears using metagenomics” (Scientific Reports, 2017)

Legend:
Experiment in all cases: NADP+ reduction at […] nm, Michaelis-Menten fit
Assay type in all cases: biochemical
Conditions in all cases: NADP+ (0.5 mM in standard assay), 50 mM Tris-HCl pH 8.0, 25 °C
S1-a-1 = test system: T1, S1-a-1
T1 construct: full-length, GST fusion (pGEX-6P-1) expressed in E. coli BL21, GST tag cut off with PreScission protease; raw reads SRA SRP079591

S1-a-2 = test system: T2, S1-a-2
T2 construct: full-length, GST fusion (pGEX-6P-1) expressed in E. coli BL21, GST tag cut off with PreScission protease; raw reads SRA SRP079591

Y1-a-1 = test system: T3, Y1-a-1
T3 construct: full-length, GST fusion (pGEX-6P-1) expressed in E. coli BL21, GST tag cut off with PreScission protease; raw reads SRA SRP079591

H1-a-1 = test system: T4, H1-a-1
T4 construct: full-length, GST fusion (pGEX-6P-1) expressed in E. coli BL21, GST tag cut off with PreScission protease; raw reads SRA SRP079591

H1-a-2 = test system: T5, H1-a-2
T5 construct: full-length, GST fusion (pGEX-6P-1) expressed in E. coli BL21, GST tag cut off with PreScission protease; raw reads SRA SRP079591

Y1-b-1 = test system: T6, Y1-b-1
T6 construct: full-length, GST fusion (pGEX-6P-1) expressed in E. coli BL21, GST tag cut off with PreScission protease; raw reads SRA SRP079591

Row | SMILES | Km (S1-a-1) | Km (S1-a-2) | Km (Y1-a-1) | Km (H1-a-1) | Km (H1-a-2) | Km (Y1-b-1)
1 | C[C@H](CCC(=O)NCCS(=O)(=O)O)[C@H]1CC[C@H]2[C@@H]3[C@H](O)C[C@@H]4C[C@H](O)CC[C@]4(C)[C@H]3CC[C@]12C [TCDCA] | 132 µM | 263 µM | 556 µM | 390 µM | 695 µM | –
2 | C[C@H](CCC(=O)NCCS(=O)(=O)O)[C@H]1CC[C@H]2[C@@H]3[C@@H](O)C[C@@H]4C[C@H](O)CC[C@]4(C)[C@H]3CC[C@]12C [TUDCA] | – | – | – | – | – | 6.15 mM
